Experiments:
recombinant GSK3β = recombinant GSK3β (Homo sapiens, UniProt P49841); test: ADP-Glo kinase assay of GSK3β activity; assay type: biochemical; conditions: for IC50: GSK3β kinase activity, 2 μM ATP
Procedure: Activity of recombinant GSK3β is measured using ADP-Glo Kinase assay according to supplier's standard protocol with minor modifications in 384 well format. Briefly, kinase reaction mixture was prepared by adding […] of recombinant enzyme, 2 μM ATP, 1 μg of enzyme substrate along with test compound or DMSO to a final volume of 5 μl. The kinase reaction was performed by incubating the mixture at room temperature for 17 mins. To correct reaction back ground a substrate blank reaction was also performed. ADP glow reagent (equal volume to reaction mixture) was added to the reaction mixture to deplete any unused ATP added to the kinase reaction and incubated at further 40 min at 27° C. Then 10 μl of kinase detection reagent was added followed by incubation for 30 min at 27° C. to convert ADP to ATP and introduce luciferase to measure kinase activity. The luminescence was measured using luminometer (Perkin Elmer) which is directly proportional to ADP generated in kinase reaction. To determine the amount of ADP produced in kinase reaction and calculate specific activity of the enzyme, a conversion curve is prepared by serial dilution of ADP and ATP mixture. Specific activity of the GSK3β was calculated using the following equation. (ADP(kinase reaction)−ADP(substrate blank)) in mmol)/(Reaction time in min)×(GSK3β in mg).

[1] = system: NF-kB activity in PANC-1 cells; test: NFkB luciferase reporter assay; assay type: cell-based; conditions: 48 h treatment, dose dependent
Procedure: In order to evaluate the effect of GSK3β inhibition on NF-kB activity, a reporter assay has been performed in the presence of identified inhibitors. To perform reporter assays, PANC-1 cells were cultured in a 48 well plate (16000 cells/well) overnight. Following day, cells were transfected with appropriate amount NF-kB reporter construct using lipofectamine 2000 as per manufacturer's protocol. After 16 hrs of post transfection cells were treated with identified GSK3β inhibitors and positive controls. After 48 h of treatment, cells were harvested in directly 1×ccl buffer. For measuring luciferase activity, 5 μl of cell lysate was mixed with 20 μl of assay reagent containing substrate for luciferase in MTP well plate as per manufacturer's protocol. The luciferase activity was determined by measuring luminescence at wavelengths in multimode reader. The protein concentration of the lysates was estimated by Bradford assay to normalize luciferase activity with protein present in the lysates. Then the relative luciferase activity was calculated according to control cells treated with DMSO set to 1. All experiments were performed in triplicates and the mean values with ±SD are presented here.

recombinant GSK3β, sequence (P49841 whole entry): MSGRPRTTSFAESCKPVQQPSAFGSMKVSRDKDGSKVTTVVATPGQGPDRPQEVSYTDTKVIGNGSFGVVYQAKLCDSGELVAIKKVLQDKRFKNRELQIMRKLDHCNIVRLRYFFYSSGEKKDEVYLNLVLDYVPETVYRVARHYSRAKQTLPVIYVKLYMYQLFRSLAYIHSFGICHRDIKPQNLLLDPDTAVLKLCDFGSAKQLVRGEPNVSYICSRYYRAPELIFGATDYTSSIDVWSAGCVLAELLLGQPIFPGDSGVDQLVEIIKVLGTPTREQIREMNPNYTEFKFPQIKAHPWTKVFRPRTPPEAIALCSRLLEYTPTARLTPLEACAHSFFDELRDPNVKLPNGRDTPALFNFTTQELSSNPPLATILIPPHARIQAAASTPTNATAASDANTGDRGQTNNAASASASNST

inhibition of GSK3β in in-vitro kinase assays (recombinant GSK3β)	IC50 (recombinant GSK3β) [µM]	Compound	NFkB luciferase activity [1]
potent inhibition	4.92 ± 0.13	COc1ccccc1N1CCN(CC2CC3(CO2)C(=O)Nc2ccccc23)CC1 (stereo not drawn) [AB-U, 5-((4-(2-Methoxyphenyl)piperazin-1-yl)methyl)-4,5-dihydro-2H-spiro[furan-3,3′-indolin]-2′-one]	significantly decreased
potent inhibition	3.88 ± 0.01	CCOC(=O)c1ccc(-c2ccccc2OCc2cn(CC3CC4(CO3)C(=O)Nc3ccccc34)nn2)nc1C (stereo not drawn) [AB-O, Ethyl 2-methyl-6-(2-((1-((2′-oxo-4,5-dihydro-2H-spiro[furan-3,3′-indoline]-5-yl)methyl)-1H-1,2,3-triazol-4-yl)methoxy)phenyl)nicotinate]	significantly decreased
